Consider one compound from patent publication US20040043442A1, “Use of betaine in functional products having blood pressure lowering effects” (Finnfeeds Finland Oy, priority 2001, published 2004).

Format in all cases: in vivo, human
Data set [1] has as its system healthy, obese adults with normal blood pressure. Description: Tolerability of the daily betaine dose in the intervention study. Conditions: 6 g daily dose, 12 weeks. An excerpt: (§1) The effects of betaine supplementation on blood pressure, and in addition on body weight, body composition, resting energy expenditure, and concentrations of serum total and lipoprotein lipids and plasma homocysteine in humans, were studied. The participants were healthy, obese adults with normal blood pressure.
(§2) Forty-two subjects (14 males, 28 females) without any chronic disease and with normal liver, kidney and thyroid function participated in the study. The inclusion criteria for body mass index (BMI) was 28-40 kg/m^2 and for age 25-60 years. Serum concentration of total triglycerides had to be <3.5 mmol/l and that of total cholesterol <7.5 mmol/l. Inclusion criteria for fasting concentration of plasma glucose was <6.7 mmol/l. Subjects with lipid lowering medication were excluded as well women with perimenopause. Four women were postmenopausal in the control group and 6 were postmenopausal in the betaine group. None of the participants were on a medication for hypertension.
The study was a controlled, randomized double-blinded parallel study. […] Grapefruit juice was added to simulate the bitter taste of betaine. The subjects were on their regular eucaloric diet during this period. For the intervention period with a hypocaloric (−2100 kJ or −500 kcal) diet the subjects were randomly assigned in two groups (20 for the control group, 22 for the betaine group). […]

Data set [2] can be described thus: Betaine absorption and excretion: blood, serum and urine levels after administration. The protocol:
There was, however, no clear correlation between blood and urine betaine levels. After administration of 1, 3 or 6 g betaine an amount of about 3, 5 and 7%, respectively, was recovered as betaine and dimethylglycine (DMG) in 24 h urine. After loading betaine 100 mg/kg, peak serum concentrations were found 1-2 h after loading; the concentrations varying a lot with indiviudual (148-258 μmol/l).

Another data set concerns homocysteine. Description: Total homocysteine by HPLC in the intervention study.
Description: as §1, §2
(§3) The study was a controlled, randomized double-blinded parallel study. […] Grapefruit juice was added to simulate the bitter taste of betaine. The subjects were on their regular eucaloric diet during this period. For the intervention period with a hypocaloric (−2100 kJ or −500 kcal) diet the subjects were randomly assigned in two groups (20 for the control group, 22 for the betaine group). The subjects were matched for BMI, gender and menstrual cycle.
(§4) The control group consumed orange juice 1 dl twice a day and the betaine group consumed betaine enriched orange juice 1 dl twice a day. The amount of betaine was 3 g per 1 dl orange juice, giving a daily betaine dose of 6 g.
Plasma total homocysteine was determined by a modification of the highpressure liquid chromatographic method described by Ubbink et al. (Ubbink, J. B., Vermaak, W. J. H., Bissbort, S. Rapid high-performance liquid chromatographic assay for total homocysteine levels in human serum. J Chromatogr (1991) 565:441446). The modified mobile phase consisted of 0.37 mol/l acetate and 0.5% methanol, pH 4.15.

In data set [3] the test system is healthy, obese adults with normal blood pressure. The data set is described as follows: Effect of betaine on blood pressure, controlled randomized double-blinded 12-week intervention study.
Description: as §1, §2, §3, §4
The data were analyzed with the SPSS/PC+ statistics program (V8.0, SPSS; Chicago, Ill.). Before further analyses, normal distribution of the variables was checked with the Kolmogorov-Smimov test with Lilliefors significance correction. Variables with abnormal distribution (TG) were logarithmized and the logarithmized values were used in further analyses. GLM for repeated measures was used to test the changes within time. In cases the result of this analysis was significant paired t-test was used for two-tailed comparisons within the groups. Student's t-test was used for between-group comparisons. […] All data are expressed as mean±SD.
Blood pressure was measured from the right arm after five minutes of rest in sitting position using a zero mercury sphygmomanometer. Two measurements were performed and the mean of them was calculated and used for further analyses.

[4] abbreviates: 4 wk (beginning of intervention period), betaine group, mean ± SD.

`C[N+](C)(C)CC(=O)[O-]` [Betaine, trimethylglycine]: the Side effects entry in data set [1] is “no side effects were observed”. In data set [1], the Tolerability entry is given as “well tolerated”. In addition, the “Time of peak serum concentrations after loading” value in data set [2] (loading betaine 100 mg/kg) fell in the range of 1 to 2 h. In data set [2] (loading betaine 100 mg/kg, varying with individual), this compound yielded a Peak serum concentrations of 148 to 258 µmol/L. In addition, the “Betaine in blood and urine of persons given betaine (result in words)” value in data set [2] (persons given betaine in the study) is on record as “Significantly increased amounts”. Besides, the Serum homocysteine concentration was determined as 8.76 ± 1.63 µmol/L in the data set with homocysteine (4 wk (beginning of intervention), betaine group, mean ± SD) and 7.93 ± 1.52 µmol/L with homocysteine (16 wk (end of intervention), betaine 6 g daily, P=0.025 vs 4 wk). Besides, the “Change in serum homocysteine concentration during the intervention period” value with homocysteine (betaine 6 g daily, P=0.030 vs control group) is -0.83 ± 0.34 µmol/L. For the same compound, the Diastolic blood pressure in data set [3] (setting [4]) is given as 85.4 ± 7.9 mmHg; in data set [3] (16 wk (end of intervention period), betaine 6 g daily in orange juice, mean ± SD, P=0.002 vs 4 wk), 80.5 ± 7.1 mmHg. Moreover, the Systolic blood pressure stood at 122.5 ± 9.5 mmHg in data set [3] (setting [4]) and 121.1 ± 9.4 mmHg in data set [3] (16 wk (end of intervention period), betaine 6 g daily in orange juice, mean ± SD, P=0.432 vs 4 wk). Besides, in data set [3] (12-week intervention, betaine 6 g daily, mean ± SD, P=0.219 vs control group), the “Change in diastolic blood pressure during the intervention period” value is −4.9 ± 6.6 mmHg. Besides, the “Change in systolic blood pressure during the intervention period” value in data set [3] (12-week intervention, betaine 6 g daily, mean ± SD, P=0.740 vs control group) is recorded as −1.4 ± 8.0 mmHg. In data set [3] (betaine group, normotensive subjects, 4 wk vs 16 wk), the “Diastolic blood pressure (result in words)” value is given as “decreased significantly”.
